Publication PMC12137981 (Acta Pharmaceutica Sinica. B, 2025)

Target: SUMOylation activating enzyme subunit 1 (SAE1) (Homo sapiens, UniProt Q9UBE0)
Assay: MST with RED-NHS-labeled purified SAE1
Assay type: binding

Sequence of SUMOylation activating enzyme subunit 1 (SAE1) (Q9UBE0 whole entry): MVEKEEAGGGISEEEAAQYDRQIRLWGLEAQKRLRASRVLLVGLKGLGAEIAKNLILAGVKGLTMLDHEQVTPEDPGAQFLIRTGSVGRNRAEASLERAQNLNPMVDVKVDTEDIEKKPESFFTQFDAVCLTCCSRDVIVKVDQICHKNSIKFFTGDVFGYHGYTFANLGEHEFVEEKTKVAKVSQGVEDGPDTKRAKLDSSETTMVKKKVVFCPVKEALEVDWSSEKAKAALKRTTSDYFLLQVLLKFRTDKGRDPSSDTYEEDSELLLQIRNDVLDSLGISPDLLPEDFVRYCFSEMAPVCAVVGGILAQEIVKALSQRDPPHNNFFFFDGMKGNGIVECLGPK

`COc1cc2c(c(OC)c1OC)-c1ccc(OC)c(=O)cc1[C@@H](NC(C)=O)CC2` [COL, colchicine] was tested, and the Kd was 2.56 µM.
